# Test results from ChEMBL document CHEMBL5036336, “Structure-Guided Optimization Provides a Series of TTK Protein Inhibitors with Potent Antitumor Activity” (J Med Chem, 2021).
# Tests used:
# [1] = target: Testis-specific serine/threonine-protein kinase 1 (Homo sapiens) (UniProt Q9BXA7); test: Inhibition of TSSK1 (unknown origin) at 3 uM by Z-lyte assay relative to control
# [2] = Kinetic solubility of compound in PBS at pH 7.4 at 200 uM incubated for 24 hrs by UPLC/MS analysis; type: physicochemical; conditions: read-out: Kinetic_solubility
# Homo sapiens [3] = organism: Homo sapiens; test: Inhibition of Bombesin receptor (unknown origin) at 10 uM relative to control
# [4] = target: Serine/threonine-protein kinase Chk2 (Homo sapiens, UniProt O96017); test: Inhibition of CHK2 (unknown origin) at 3 uM by Z-lyte assay relative to control
# [5] = target: T1, Leucine-rich repeat serine/threonine-protein kinase 2 (Homo sapiens, UniProt Q5S007); test: Inhibition of LRRK2 (unknown origin) at 3 uM by ADAPTA assay relative to control
# [6] = Mean residence time in rat at 2 mg/kg, iv; type: ADME, organism-based; conditions: in vivo
# [7] = target: Muscarinic acetylcholine receptor M3 (Homo sapiens) (UniProt P20309); test: Inhibition of muscarinic M3 receptor (unknown origin) at 10 uM relative to control
# [8] = target: T1, Leucine-rich repeat serine/threonine-protein kinase 2; test: Inhibition of LRRK2 (unknown origin) by ADAPTA assay
# [9] = target: T2, Mitogen-activated protein kinase 9 (Homo sapiens, UniProt P45984); test: Inhibition of JNK2 (unknown origin) by Z-lyte assay
# Target sequence in this assay (P45984 whole entry): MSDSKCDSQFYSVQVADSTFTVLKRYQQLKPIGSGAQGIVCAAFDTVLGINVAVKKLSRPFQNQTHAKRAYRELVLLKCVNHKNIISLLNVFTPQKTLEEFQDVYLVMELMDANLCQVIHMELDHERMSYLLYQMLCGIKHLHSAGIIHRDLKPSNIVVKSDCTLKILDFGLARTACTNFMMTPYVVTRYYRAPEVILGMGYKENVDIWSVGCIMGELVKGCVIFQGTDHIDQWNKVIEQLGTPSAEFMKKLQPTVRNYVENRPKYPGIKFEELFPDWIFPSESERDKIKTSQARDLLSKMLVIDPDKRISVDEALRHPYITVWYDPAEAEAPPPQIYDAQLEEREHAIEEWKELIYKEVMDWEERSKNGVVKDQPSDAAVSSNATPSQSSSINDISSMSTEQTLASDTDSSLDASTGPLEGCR
# [10] = AUC in rat at 2 mg/kg, iv; type: ADME, organism-based; set-up: dose 2 mg/kg; conditions: in vivo
# [11] = target: MAP kinase-activated protein kinase 3 (Homo sapiens, UniProt Q16644); test: Inhibition of MAPKAPK3 (unknown origin) at 3 uM by Z-lyte assay relative to control
# Homo sapiens [12] = organism: Homo sapiens; test: Selectivity ratio of IC50 for inhibition of TSSK1 (unknown origin) to IC50 for inhibition of TTK (unknown origin)
# Homo sapiens [13] = organism: Homo sapiens; test: Selectivity ratio of IC50 for inhibition of JNK1 (unknown origin) to IC50 for inhibition of TTK (unknown origin)
# Homo sapiens [14] = organism: Homo sapiens; test: Selectivity ratio of IC50 for inhibition of N1-SRC (unknown origin) to IC50 for inhibition of TTK (unknown origin)
# [15] = target: T2, Mitogen-activated protein kinase 9; test: Inhibition of JNK2 (unknown origin) at 3 uM by Z-lyte assay relative to control
# [16] = Antitumor activity against human CAL-51 cells xenografted in CB17-SCID mouse assessed as tumor growth inhibition at 30 to 50 mg/kg, iv administered once per week for 16 days relative to control; type: functional; conditions: dose 30-50 mg/kg, time 16 day
# Homo sapiens [17] = organism: Homo sapiens; test: Selectivity ratio of IC50 for inhibition of LRRK2 G2019S mutant (unknown origin) to IC50 for inhibition of TTK (unknown origin)
# [18] = target: T3, Dual specificity protein kinase TTK (Homo sapiens, UniProt P33981); test: Inhibition of TTK autophosphorylation at T686 residue in human CAL-51 cells measured after 1 hr by Western blot analysis; type: cell-based
# T3 sequence (P33981 whole entry): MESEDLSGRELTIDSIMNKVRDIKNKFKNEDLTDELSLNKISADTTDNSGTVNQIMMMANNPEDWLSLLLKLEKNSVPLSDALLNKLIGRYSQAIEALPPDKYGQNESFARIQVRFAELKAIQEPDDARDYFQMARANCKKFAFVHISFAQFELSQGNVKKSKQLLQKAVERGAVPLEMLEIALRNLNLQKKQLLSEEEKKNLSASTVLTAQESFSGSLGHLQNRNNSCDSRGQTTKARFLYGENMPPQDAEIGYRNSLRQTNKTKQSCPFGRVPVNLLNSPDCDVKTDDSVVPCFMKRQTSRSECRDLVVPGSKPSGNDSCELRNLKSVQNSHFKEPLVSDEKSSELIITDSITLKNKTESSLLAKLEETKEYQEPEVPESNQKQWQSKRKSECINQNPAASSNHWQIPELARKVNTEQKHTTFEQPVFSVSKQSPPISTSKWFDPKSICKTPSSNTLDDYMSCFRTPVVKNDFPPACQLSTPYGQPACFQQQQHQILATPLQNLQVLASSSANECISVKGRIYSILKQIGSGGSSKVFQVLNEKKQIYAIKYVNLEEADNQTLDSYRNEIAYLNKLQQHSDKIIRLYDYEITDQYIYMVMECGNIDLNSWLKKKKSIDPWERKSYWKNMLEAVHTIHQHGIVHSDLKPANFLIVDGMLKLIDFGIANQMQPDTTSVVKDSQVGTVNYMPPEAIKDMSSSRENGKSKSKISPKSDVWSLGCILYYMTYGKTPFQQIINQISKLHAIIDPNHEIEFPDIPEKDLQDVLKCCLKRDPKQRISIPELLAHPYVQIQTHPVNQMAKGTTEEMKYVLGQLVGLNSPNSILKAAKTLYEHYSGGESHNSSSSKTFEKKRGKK
# [19] = Inhibition of KNL1 autophosphorylation at T943 residue in human CAL-51 cells measured after 1 hr by Western blot analysis; type: cell-based; conditions: CAL-51, 1 h
# [20] = target: Mitogen-activated protein kinase 8 (Homo sapiens, UniProt P45983); test: Inhibition of JNK1 (unknown origin) at 3 uM by Z-lyte assay relative to control
# Cytochrome P450 2C8 = Cytochrome P450 2C8 (Homo sapiens, UniProt P10632); test: Time dependent inhibition of CYP2C8 in human liver microsomes; type: ADME
# Chain of Cytochrome P450 2C8 (P10632 whole entry): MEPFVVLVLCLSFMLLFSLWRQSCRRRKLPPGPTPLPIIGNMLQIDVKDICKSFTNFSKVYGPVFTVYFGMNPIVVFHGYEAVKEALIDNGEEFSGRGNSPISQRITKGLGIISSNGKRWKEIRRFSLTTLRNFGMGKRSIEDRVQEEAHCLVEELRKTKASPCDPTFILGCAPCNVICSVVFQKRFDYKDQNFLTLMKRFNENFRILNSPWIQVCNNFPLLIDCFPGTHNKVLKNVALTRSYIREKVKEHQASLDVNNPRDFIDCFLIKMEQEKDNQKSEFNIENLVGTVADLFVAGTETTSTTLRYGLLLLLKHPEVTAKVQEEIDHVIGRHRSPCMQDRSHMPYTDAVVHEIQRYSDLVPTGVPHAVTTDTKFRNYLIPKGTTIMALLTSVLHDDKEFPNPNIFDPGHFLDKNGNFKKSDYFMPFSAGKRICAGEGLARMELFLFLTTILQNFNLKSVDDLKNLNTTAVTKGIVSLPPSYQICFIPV
# T1 sequence (Q5S007 whole entry): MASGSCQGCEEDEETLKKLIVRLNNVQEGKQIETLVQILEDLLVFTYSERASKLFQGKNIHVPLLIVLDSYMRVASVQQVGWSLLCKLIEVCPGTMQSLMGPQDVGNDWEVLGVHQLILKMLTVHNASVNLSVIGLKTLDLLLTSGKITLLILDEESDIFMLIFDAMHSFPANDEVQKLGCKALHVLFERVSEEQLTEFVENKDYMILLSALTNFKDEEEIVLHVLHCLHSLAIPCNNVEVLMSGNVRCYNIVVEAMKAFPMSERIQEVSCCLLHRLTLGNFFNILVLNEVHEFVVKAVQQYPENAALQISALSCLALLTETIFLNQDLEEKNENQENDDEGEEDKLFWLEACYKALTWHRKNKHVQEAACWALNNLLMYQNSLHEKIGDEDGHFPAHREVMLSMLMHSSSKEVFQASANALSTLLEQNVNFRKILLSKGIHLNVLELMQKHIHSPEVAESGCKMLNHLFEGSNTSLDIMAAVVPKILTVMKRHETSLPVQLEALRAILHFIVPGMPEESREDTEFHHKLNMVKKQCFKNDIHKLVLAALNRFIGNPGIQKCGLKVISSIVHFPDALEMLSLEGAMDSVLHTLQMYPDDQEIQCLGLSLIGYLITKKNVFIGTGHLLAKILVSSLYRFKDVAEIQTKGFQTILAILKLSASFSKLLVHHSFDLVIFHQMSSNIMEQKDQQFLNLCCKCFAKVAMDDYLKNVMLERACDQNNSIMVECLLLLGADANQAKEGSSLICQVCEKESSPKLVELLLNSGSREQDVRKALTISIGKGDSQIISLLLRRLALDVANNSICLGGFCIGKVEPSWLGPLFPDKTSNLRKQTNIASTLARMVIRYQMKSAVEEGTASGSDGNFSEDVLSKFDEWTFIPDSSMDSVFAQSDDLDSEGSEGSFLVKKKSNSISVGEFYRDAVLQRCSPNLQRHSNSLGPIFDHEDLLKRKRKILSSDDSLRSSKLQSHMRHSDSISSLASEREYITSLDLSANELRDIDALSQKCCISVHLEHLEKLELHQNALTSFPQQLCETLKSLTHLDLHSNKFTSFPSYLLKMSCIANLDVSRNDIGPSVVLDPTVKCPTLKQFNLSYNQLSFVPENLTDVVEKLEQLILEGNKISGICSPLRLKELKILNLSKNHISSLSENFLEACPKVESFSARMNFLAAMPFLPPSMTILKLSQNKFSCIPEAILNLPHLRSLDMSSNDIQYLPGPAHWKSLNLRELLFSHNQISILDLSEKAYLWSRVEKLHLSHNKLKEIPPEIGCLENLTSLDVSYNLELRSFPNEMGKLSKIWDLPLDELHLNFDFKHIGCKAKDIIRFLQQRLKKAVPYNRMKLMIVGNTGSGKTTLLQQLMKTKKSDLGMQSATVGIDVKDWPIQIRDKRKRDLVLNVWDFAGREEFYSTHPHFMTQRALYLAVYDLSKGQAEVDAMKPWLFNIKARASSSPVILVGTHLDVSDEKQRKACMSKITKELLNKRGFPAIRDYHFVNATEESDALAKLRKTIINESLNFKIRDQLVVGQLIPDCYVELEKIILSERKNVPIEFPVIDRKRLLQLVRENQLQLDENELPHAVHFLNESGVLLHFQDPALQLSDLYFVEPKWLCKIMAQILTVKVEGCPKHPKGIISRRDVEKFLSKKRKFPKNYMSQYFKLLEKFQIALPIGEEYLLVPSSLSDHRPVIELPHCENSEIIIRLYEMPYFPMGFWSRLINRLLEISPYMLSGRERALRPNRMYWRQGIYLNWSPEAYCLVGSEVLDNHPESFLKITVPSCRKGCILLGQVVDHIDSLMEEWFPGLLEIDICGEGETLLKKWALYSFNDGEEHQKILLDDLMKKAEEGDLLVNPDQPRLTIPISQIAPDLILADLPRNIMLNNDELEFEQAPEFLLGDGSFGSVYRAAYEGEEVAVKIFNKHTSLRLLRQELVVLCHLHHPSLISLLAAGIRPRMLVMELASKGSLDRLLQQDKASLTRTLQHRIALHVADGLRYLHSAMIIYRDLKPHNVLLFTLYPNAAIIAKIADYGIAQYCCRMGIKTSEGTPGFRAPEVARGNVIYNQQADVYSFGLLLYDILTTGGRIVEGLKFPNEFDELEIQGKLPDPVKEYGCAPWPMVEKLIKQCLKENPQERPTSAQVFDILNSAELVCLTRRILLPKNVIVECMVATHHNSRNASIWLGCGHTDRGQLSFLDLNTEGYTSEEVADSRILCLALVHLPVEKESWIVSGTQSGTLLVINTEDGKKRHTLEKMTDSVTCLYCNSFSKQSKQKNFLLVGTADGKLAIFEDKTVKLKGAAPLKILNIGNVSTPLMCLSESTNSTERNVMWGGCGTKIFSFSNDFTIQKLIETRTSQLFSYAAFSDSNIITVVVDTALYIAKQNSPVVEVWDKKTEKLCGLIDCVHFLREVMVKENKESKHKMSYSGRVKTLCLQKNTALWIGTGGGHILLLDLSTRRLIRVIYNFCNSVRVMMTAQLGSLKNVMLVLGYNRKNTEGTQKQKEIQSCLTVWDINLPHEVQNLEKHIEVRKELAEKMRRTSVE
# Chain of MAP kinase-activated protein kinase 3 (Q16644 whole entry, looked up): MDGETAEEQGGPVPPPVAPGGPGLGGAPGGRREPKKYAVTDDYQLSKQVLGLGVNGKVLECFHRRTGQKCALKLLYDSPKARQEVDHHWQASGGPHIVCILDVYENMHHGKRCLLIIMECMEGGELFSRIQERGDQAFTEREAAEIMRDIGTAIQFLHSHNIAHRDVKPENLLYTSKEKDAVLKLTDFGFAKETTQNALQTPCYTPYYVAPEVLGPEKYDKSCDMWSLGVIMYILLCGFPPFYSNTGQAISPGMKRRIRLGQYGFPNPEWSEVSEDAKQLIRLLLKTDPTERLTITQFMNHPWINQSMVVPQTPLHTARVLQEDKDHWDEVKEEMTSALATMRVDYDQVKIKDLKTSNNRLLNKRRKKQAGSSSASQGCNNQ
# Chain of Muscarinic acetylcholine receptor M3 (Homo sapiens) (P20309 whole entry, looked up): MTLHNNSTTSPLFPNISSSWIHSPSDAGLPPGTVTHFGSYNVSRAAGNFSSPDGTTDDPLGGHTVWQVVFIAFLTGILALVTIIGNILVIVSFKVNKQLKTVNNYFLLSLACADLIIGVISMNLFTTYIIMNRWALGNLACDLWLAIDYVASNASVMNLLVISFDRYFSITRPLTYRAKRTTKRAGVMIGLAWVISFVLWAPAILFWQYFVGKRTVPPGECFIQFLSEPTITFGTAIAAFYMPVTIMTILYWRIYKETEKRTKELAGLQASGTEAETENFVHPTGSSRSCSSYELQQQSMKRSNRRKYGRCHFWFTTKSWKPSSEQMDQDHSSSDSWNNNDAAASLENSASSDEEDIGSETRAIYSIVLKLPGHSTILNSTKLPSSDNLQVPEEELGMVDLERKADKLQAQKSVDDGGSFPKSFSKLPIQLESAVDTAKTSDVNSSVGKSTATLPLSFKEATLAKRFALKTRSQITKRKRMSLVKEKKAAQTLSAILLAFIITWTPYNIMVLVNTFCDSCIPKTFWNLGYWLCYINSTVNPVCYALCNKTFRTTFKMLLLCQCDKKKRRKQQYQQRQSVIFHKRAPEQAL
# Chain of Mitogen-activated protein kinase 8 (P45983 whole entry): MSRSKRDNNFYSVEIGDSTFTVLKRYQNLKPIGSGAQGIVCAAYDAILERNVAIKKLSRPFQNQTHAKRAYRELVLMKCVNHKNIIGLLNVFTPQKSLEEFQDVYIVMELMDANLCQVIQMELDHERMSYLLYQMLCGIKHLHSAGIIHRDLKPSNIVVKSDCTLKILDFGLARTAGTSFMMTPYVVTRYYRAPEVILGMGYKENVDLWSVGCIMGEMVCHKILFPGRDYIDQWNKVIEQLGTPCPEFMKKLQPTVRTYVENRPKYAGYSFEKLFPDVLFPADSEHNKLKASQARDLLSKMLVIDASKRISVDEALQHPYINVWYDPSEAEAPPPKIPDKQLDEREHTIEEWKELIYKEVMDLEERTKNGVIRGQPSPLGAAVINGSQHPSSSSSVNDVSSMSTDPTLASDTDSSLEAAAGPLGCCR
smiles,measurement,setting,value
CCc1cccc(CC)c1N1CCn2cc(-c3nc(Nc4ccc(N5CCC(C(=O)N6CC7(CN(C)C7)C6)CC5)cc4OC)nc4[nH]ccc34)cc2C1=O,inhibition,[1],> 80%
same,"solubility kinetic at 24 h, 200 µM",[2],180 µM
same,inhibition,Homo sapiens [3],80%
same,inhibition,[4],> 80%
same,inhibition,[5],> 80%
same,MRT,[6],4.3 h
same,inhibition,[7],80%
same,IC50,[8],0.342 µM
same,IC50,[9],0.602 µM
same,AUC,[10],18.2 µM·h
same,inhibition,[11],> 80%
same,Ratio IC50,Homo sapiens [12],11.7
same,Ratio IC50,Homo sapiens [13],64
same,Ratio IC50,Homo sapiens [14],433
same,inhibition,[15],> 80%
same,TGI,[16],>60%
same,Ratio IC50,Homo sapiens [17],76.3
same,IC50,[18],0.074 µM
same,IC50,[19],0.048 µM
same,inhibition,[20],> 80%
same,IC50,Cytochrome P450 2C8,> 30 µM
